Measured values reported in US10251892B2, “Bicyclic heterocycles as FGFR4 inhibitors” (Incyte Corporation, priority 2015, dated 2019).

Molecular target: FGFR3 enzyme (Homo sapiens (Human), UniProt P22607)
Assay: FGFR Enzymatic Assay (peptide phosphorylation, FRET), FGFR3
Assay type: biochemical
Conditions: IC50 ratio showing FGFR3 selectivity; pre-incubated for 4 hours
Method: The inhibitor potency of the exemplified compounds was measured in an enzyme assay that measures peptide phosphorylation using FRET measurements to detect product formation. Inhibitors were serially diluted in DMSO and a volume of 0.5 μL was transferred to the wells of a 384-well plate.
GraphPad prism3 was used to analyze the data.

Sequence of FGFR3 enzyme (P22607 23-806): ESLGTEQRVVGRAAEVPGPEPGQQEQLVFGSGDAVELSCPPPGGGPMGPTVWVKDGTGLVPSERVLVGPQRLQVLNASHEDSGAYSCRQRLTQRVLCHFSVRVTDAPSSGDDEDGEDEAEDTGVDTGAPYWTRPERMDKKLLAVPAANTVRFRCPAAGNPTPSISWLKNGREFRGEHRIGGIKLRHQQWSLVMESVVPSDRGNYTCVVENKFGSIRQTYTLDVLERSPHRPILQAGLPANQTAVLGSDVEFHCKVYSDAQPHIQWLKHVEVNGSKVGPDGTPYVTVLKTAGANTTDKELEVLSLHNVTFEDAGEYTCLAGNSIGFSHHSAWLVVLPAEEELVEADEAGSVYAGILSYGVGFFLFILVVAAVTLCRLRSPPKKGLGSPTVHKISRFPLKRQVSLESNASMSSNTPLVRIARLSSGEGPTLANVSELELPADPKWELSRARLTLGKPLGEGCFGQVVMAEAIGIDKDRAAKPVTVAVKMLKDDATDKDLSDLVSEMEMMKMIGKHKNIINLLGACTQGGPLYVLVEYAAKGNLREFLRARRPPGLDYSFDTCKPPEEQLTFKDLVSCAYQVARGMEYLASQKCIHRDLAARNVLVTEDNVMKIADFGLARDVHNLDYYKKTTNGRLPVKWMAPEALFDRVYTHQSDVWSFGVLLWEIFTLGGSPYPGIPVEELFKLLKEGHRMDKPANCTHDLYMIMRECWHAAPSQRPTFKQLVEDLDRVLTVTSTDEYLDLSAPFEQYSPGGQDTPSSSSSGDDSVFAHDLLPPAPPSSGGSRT

| Compound | FGFR1/FGFR3 | FGFR4/FGFR3 |
| --- | --- | --- |
| CCN1C(=O)N(c2c(F)c(OC)cc(OC)c2F)Cc2cnc(-c3cn(CCN4CCOCC4)nc3C)cc21 [Example 49, 3-(2,6-difluoro-3,5-dimethoxyphenyl)-1-ethyl-7-(3-methyl-1-(2-morpholinoethyl)-1H-pyrazol-4-yl)-3,4-dihydropyrido[4,3-d]pyrimidin-2(1H)-one] | >5 | >1 |
| CCN1C(=O)N(c2c(F)c(OC)cc(OC)c2F)Cc2cnc(-c3cn(CC(=O)N4CCOCC4)nc3C)cc21 [Example 51, 3-(2,6-difluoro-3,5-dimethoxyphenyl)-1-ethyl-7-(3-methyl-1-(2-morpholino-2-oxoethyl)-1H-pyrazol-4-yl)-3,4-dihydropyrido[4,3-d]pyrimidin-2(1H)-one] | >1 | >1 |
| COc1cc(OC)c(F)c(N2Cc3cnc(-c4cn(CCN5CCOCC5)nc4C)cc3C3(CC3)C2=O)c1F [Example 52, 2′-(2,6-difluoro-3,5-dimethoxyphenyl)-6′-(3-methyl-1-(2-morpholinoethyl)-1H-pyrazol-4-yl)-1′H-spiro[cyclopropane-1,4′-[2,7]naphthyridin]-3′(2′H)-one] | >10 | >1 |
| CCn1cnc(-c2cc3c(cn2)CN(c2c(F)c(OC)cc(OC)c2F)C(=O)C32CC2)c1 [Example 53, 2′-(2,6-difluoro-3,5-dimethoxyphenyl)-6′-(1-ethyl-1H-imidazol-4-yl)-1′H-spiro[cyclopropane-1,4′-[2,7]naphthyridin]-3′(2′H)-one] | >5 | >5 |
| COc1cc(OC)c(F)c(N2Cc3cnc(-c4cn(C5CCS(=O)(=O)C5)nc4C)cc3C3(CC3)C2=O)c1F (centres unmarked) [Example 54, 2′-(2,6-difluoro-3,5-dimethoxyphenyl)-6′-[1-(1,1-dioxidotetrahydro-3-thienyl)-3-methyl-1H-pyrazol-4-yl]-1′,2′-dihydro-3′H-spiro[cyclopropane-1,4′-[2,7]naphthyridin]-3′-one] | >5 | >1 |
| COc1cc(OC)c(F)c(N2Cc3cnc(-c4cnn(C5(CC#N)CN(C(C)=O)C5)c4)cc3C3(CC3)C2=O)c1F [Example 56, 2-(1-acetyl-3-(4-(2′-(2,6-difluoro-3,5-dimethoxyphenyl)-3′-oxo-2′,3′-dihydro-1′H-spiro[cyclopropane-1,4′-[2,7]naphthyridine]-6′-yl)-1H-pyrazol-1-yl)azetidin-3-yl)acetonitrile] | >5 | >1 |
| COc1cc(OC)c(F)c(N2Cc3cnc(-c4cn(C)nc4C)cc3N(c3ccnnc3)C2=O)c1F [Example 57, 3-(2,6-difluoro-3,5-dimethoxyphenyl)-7-(1,3-dimethyl-1H-pyrazol-4-yl)-1-(pyridazin-4-yl)-3,4-dihydropyrido[4,3-d]pyrimidin-2(1H)-one] | >10 | >10 |
| COc1cc(CN2C(=O)N(c3c(F)c(OC)cc(OC)c3F)Cc3cnc(-c4cn(C)nc4C)cc32)ccn1 [Example 58, 3-(2,6-difluoro-3,5-dimethoxyphenyl)-7-(1,3-dimethyl-1H-pyrazol-4-yl)-1-((2-methoxypyridin-4-yl)methyl)-3,4-dihydropyrido[4,3-d]pyrimidin-2(1H)-one] | >10 | >10 |
| COc1ccc(CN2C(=O)N(c3c(F)c(OC)cc(OC)c3F)Cc3cnc(-c4cn(C)nc4C)cc32)cn1 [Example 59, 3-(2,6-difluoro-3,5-dimethoxyphenyl)-7-(1,3-dimethyl-1H-pyrazol-4-yl)-1-((6-methoxypyridin-3-yl)methyl)-3,4-dihydropyrido[4,3-d]pyrimidin-2(1H)-one] | >10 | >10 |
| COc1cc(OC)c(F)c(N2Cc3cnc(-c4cn(C)nc4C)cc3N(c3cncnc3)C2=O)c1F [Example 61, 3-(2,6-difluoro-3,5-dimethoxyphenyl)-7-(1,3-dimethyl-1H-pyrazol-4-yl)-1-(pyrimidin-5-yl)-3,4-dihydropyrido[4,3-d]pyrimidin-2(1H)-one] | >10 | >5 |
